Where “and” joins values, the source holds several entries; their conditions need not be identical. Equal values may be shown once. Read-outs that look alike come from different tables or passages of the source. Numbered stars: 1 amine (or outer) side, 2 acyl side, 3 side chain; on linkers, the order of the positions; unused ones are H or OH. Bridge positions count the residues as written; N and C are the ends. Square brackets hold non-standard residues; d marks the D form. Peptide text beside a SMILES is read from it. * marks the point of attachment. hTyr(3S-OH,4S-OH,3'-OSO3H) = N[C@H](C(=O)O)[C@H](O)[C@@H](O)c1ccc(O)c(OS(=O)(=O)O)c1; Orn(4R-OH,5R-OH) = O=C([C@H](C[C@@H](O)[C@@H](O)N[*:3])N[*:1])[*:2]; Pro(3S-OH,4S-Me) = C[C@H]1CN[C@H](C(=O)O)[C@H]1O; X1 = CCCCCOc1ccc(-c2cc(-c3ccc(C(=O)*)cc3)no2)cc1; Gln(3R-OH) = NC(=O)C[C@@H](O)[C@H](N)C(=O)O; X2 = CC(C)CCCCCCCCC[C@H](CC(=O)[*:1])O[*:2]; Hyp = O=C(O)[C@@H]1C[C@@H](O)CN1
Legend:
[1] = biological target: T1, SARS-CoV-2 N protein-RNA1 interaction (Severe acute respiratory syndrome coronavirus 2, UniProt P0DTC9); test: biochemical; type: binding; settings: for loss in IC50 values in comparison to CA: single carboxylate at C1 versus CA
T1 construct: made in house; host or cells: Escherichia coli BL21 (DE3)

SARS-CoV-2 [2] = test: SARS-CoV-2 replication assay in Vero CCL81 cells (plaque assay); type: cell-based
SARS-CoV-2 [3] = test: SARS-CoV-2 replication assay in Calu-3 cells (plaque assay); type: cell-based
SARS-CoV-2 particles = test: Virucidal assay in Vero CCL-81 cells; type: cell-based; settings: particles incubated with CA 25 or 100 µM for 1 h
SARS-CoV-2 [4] = settings: cited from earlier work
multiple human viruses = settings: cited from earlier work
N protein-RNA1 complex = biological target: T2, N protein-RNA1 complex (Severe acute respiratory syndrome coronavirus 2, UniProt P0DTC9); type: binding, SARS-CoV-2; settings: protein:compound 1:2 ratio
T2 construct: made in house; host or cells: Escherichia coli BL21 (DE3)

[5] = biological target: T3, SARS-CoV-2 N protein (full-length) (Severe acute respiratory syndrome coronavirus 2, UniProt P0DTC9); test: DLS aggregation assay of N protein; settings: compound 20 µM, two-fold molar excess
T3 construct: made in house; host or cells: Escherichia coli BL21 (DE3)
Method: Aggregation assays were performed with the full-length N protein diluted to 10 µM in 50 mM sodium phosphate buffer, 100 mM NaCl (pH, 7.6), with subsequent addition of 20 µM of each test compounds or 1% DMSO used as diluent. […] Samples were evaluated by DLS in a ZetaSizer NanoS (Malvern) equipment, at 10 °C, using default parameters set by the equipment.

[6] = biological target: T1, SARS-CoV-2 N protein-RNA1 interaction; test: Primary FP HTS at 20 µM compound; type: binding; settings: compound 20 µM
[7] = IC50 for blocking the N protein-RNA1 interaction
[8] = read-out: IC50 for blocking the N protein-RNA1 interaction

Molecule: CCCCCCO[C@@H](C)c1cccc(-c2csc(NC(=O)c3cc(Cl)c(/C=C(\C)C(=O)O)c(Cl)c3)n2)c1OC [Lusutrombopag]
- IC50 [1, 7]: 6 µM

Molecule: C[C@@H](O)[C@H]1C(=O)N2C(C(=O)O)=C(S[C@@H]3CN[C@H](C(=O)Nc4cccc(C(=O)O)c4)C3)[C@H](C)[C@H]12 [Ertapenem sodium]
- IC50 [1, 8]: 13.8 µM

Molecule: CC1=NN(c2ccc(C)c(C)c2)C(=O)/C1=N\Nc1cccc(-c2cccc(C(=O)O)c2)c1O [Eltrombopag]
- IC50 [1, 7]: 7.1 µM and 8.1 µM

Molecule: L-Chicoric acid
- antiviral activity at 25 and 100 µM (SARS-CoV-2 [2]): antiviral activity at 100 µM only
- reduction in infectious viral load (SARS-CoV-2 [2]): tenfold
- antiviral activity at 25 and 100 µM (SARS-CoV-2 [3]): antiviral activity at 100 µM only
- reduction in infectious viral load (SARS-CoV-2 [3]): 100 fold
- virucidal activity against SARS-CoV-2 (SARS-CoV-2 particles): slight virucidal activity

Molecule: C[C@@H]1NC(=O)[C@@H]2CCCN2C(=O)[C@H](CC(N)=O)NC(=O)[C@@H]2CSSC[C@H](N)C(=O)N[C@H]3CSSC[C@H](NC1=O)C(=O)N[C@@H]([C@@H](C)O)C(=O)NCC(=O)N[C@H](C(=O)N[C@@H](Cc1ccc(O)cc1)C(=O)O)CSSC[C@H](NC(=O)[C@H](Cc1ccc(O)cc1)NC(=O)[C@H](CCC(=O)O)NC3=O)C(=O)N2 [Linaclotide] (H-CCEYCCNPACTGCY-OH; disulfide 1-6, 2-10, 5-13)
- IC50 [1, 7]: 5.5 µM

Molecule: O=C(/C=C/c1ccc(O)c(O)c1)O[C@H]1[C@H](O)C[C@](O)(C(=O)O)C[C@H]1OC(=O)/C=C/c1ccc(O)c(O)c1 [4,5-Dicaffeoylquinic acid]
- IC50 [1, 8]: 3 µM
- loss in IC50 values in comparison to CA [1]: ~ 10 fold

Molecule: O=C(O)c1cc(O)c(O)c(O)c1 [Gallic acid]
- IC50 [1, 7]: 23.3 µM

Molecule: O=C(NCc1ccc(Oc2ccccc2)cc1)c1nc(-c2cc(Br)c(O)c(Br)c2)no1 [IOWH-032]
- IC50 [1, 8]: 7.7 µM

Molecule: Cc1ccc(C(=O)Nc2ccc(S(=O)(=O)O)c3cc(S(=O)(=O)O)cc(S(=O)(=O)O)c23)cc1NC(=O)c1cccc(NC(=O)Nc2cccc(C(=O)Nc3cc(C(=O)Nc4ccc(S(=O)(=O)O)c5cc(S(=O)(=O)O)cc(S(=O)(=O)O)c45)ccc3C)c2)c1 [Suramin]
- IC50 [1, 7]: 0.8 µM
- concentration reported to inhibit SARS-CoV-2 infection in cell culture (SARS-CoV-2 [4]): 20 µM

Molecule: O=C(OC[C@H]1O[C@@H](OC(=O)c2cc(O)c(O)c(O)c2)[C@H](OC(=O)c2cc(O)c(O)c(O)c2)[C@@H](OC(=O)c2cc(O)c(O)c(O)c2)[C@@H]1OC(=O)c1cc(O)c(O)c(O)c1)c1cc(O)c(O)c(O)c1 [Pentagalloylglucose]
- IC50 [1, 7]: 11.6 µM

Molecule: O=C(O)c1cc(O)c2c(c1)[C@H]([C@H]1c3cc(C(=O)O)cc(O)c3C(=O)c3c(O[C@@H]4O[C@H](CO)[C@@H](O)[C@H](O)[C@H]4O)cccc31)c1cccc(O[C@@H]3O[C@H](CO)[C@@H](O)[C@H](O)[C@H]3O)c1C2=O [Sennoside A]
- IC50 [1, 7]: 5.7 µM

Molecule: CCCCCOc1ccc(-c2cc(-c3ccc(C(=O)N[C@H]4C[C@@H](O)[C@@H](O)NC(=O)[C@@H]5[C@@H](O)[C@@H](C)CN5C(=O)[C@H]([C@H](O)CC(N)=O)NC(=O)[C@H]([C@H](O)[C@@H](O)c5ccc(O)c(OS(=O)(=O)O)c5)NC(=O)[C@@H]5C[C@@H](O)CN5C(=O)[C@H]([C@@H](C)O)NC4=O)cc3)no2)cc1 [Micafungin] (X1-[Orn(4R-OH,5R-OH)]T[Hyp][hTyr(3S-OH,4S-OH,3'-OSO3H)][Gln(3R-OH)][Pro(3S-OH,4S-Me)]; lactam 1-C)
- IC50 [1, 7]: 10.4 µM

Molecule: CCCCCCCC/C=C\CCCCCCCC(=O)O [Oleic acid]
- IC50 [1, 7]: 15.7 µM

Molecule: O=C(O)C[C@@H]1C(=O)O[C@H]2[C@H](OC(=O)c3cc(O)c(O)c(O)c3)[C@@H](OC(=O)c3cc(O)c(O)c4c3[C@H]1[C@H](O)C(=O)O4)[C@H](OC(=O)c1cc(O)c(O)c(O)c1)O[C@@H]2COC(=O)c1cc(O)c(O)c(O)c1 [Chebulinic acid]
- in vitro antiviral potencies (multiple human viruses): low micromolar range

Molecule: O=C1OC[C@H]2OC(O)[C@H](O)[C@@H](O)[C@@H]2OC(=O)c2cc(O)c(O)c(O)c2-c2c(O)c(O)c3oc(=O)c4c(c(O)c(O)c5oc(=O)c2c3c54)-c2c1cc(O)c(O)c2O (mixture of isomers) [Punicalin]
- IC50 [1, 7]: 0.7 µM
- in vitro antiviral potencies (multiple human viruses): low micromolar range

Molecule: O=c1ccc2[n+]([O-])c3ccc(O)cc3oc-2c1 [Resazurin]
- IC50 [1, 7]: 10.5 µM

Molecule: O=C1O[C@H]2[C@@H]3OC(=O)c4cc(O)c(O)c(O)c4-c4c(O)c(O)c5oc(=O)c6c(c(O)c(O)c7oc(=O)c4c5c76)-c4c(cc(O)c(O)c4O)C(=O)OC[C@H]3OC(O)[C@@H]2OC(=O)c2cc(O)c(O)c(O)c2-c2c1cc(O)c(O)c2O (mixture of isomers) [Punicalagin]
- IC50 [1, 7]: 0.7 µM
- binding affinity of the N protein to RNA1 in the presence of compound (N protein-RNA1 complex): significantly reduced
- effect on hydrodynamic radius (Rh) / oligomeric state of the N protein (DLS) [5]: appears to cause N protein aggregation
- in vitro antiviral potencies (multiple human viruses): low micromolar range

Molecule: Verteporfin
- IC50 [1, 8]: 10.8 µM

Molecule: COc1ccc2c(O[C@@H]3C[C@H]4C(=O)N[C@]5(C(=O)NS(=O)(=O)C6CC6)C[C@H]5/C=C\CCCCN(C)C(=O)[C@@H]4C3)cc(-c3nc(C(C)C)cs3)nc2c1C [Simeprevir]
- IC50 [1, 7]: 16.5 µM

Molecule: Cc1cc(/C=C(\C#N)C(=O)Nc2cccc(Br)c2)c(C)n1-c1ccc(C(=O)O)cc1 [RNPA1000]
- IC50 [1, 8]: 9.6 µM

Molecule: O=S(=O)(O)c1ccc(N=C2C=CC(=C(c3ccc(Nc4ccc(S(=O)(=O)O)cc4)cc3)c3ccc(Nc4ccc(S(=O)(=O)O)cc4)cc3)C=C2)cc1 [Methyl Blue]
- IC50 [1, 8]: 4.2 µM

Molecule: O=C(O[C@@H]1O[C@@H]2COC(=O)c3cc(O)c(O)c(O)c3-c3c(cc(O)c(O)c3O)C(=O)O[C@H]([C@H]1O)[C@@H]2O)c1cc(O)c(O)c(O)c1 [Corilagin]
- IC50 [1, 7]: 2.4 µM

Molecule: Tannic acid
- IC50 [1, 8]: 1.4 µM

Molecule: COc1ccc2c(c1)C=C1Cn3c-2c(C2CCCCC2)c2ccc(cc23)C(=O)NS(=O)(=O)N(C)CCOCCN(C)C1=O [TMC647055]
- IC50 [1, 7]: 10 µM

Molecule: Cc1cc2c(C(C)C)c(O)c(O)c(C=O)c2c(O)c1-c1c(C)cc2c(C(C)C)c(O)c(O)c(C=O)c2c1O [Gossypol acetic acid]
- IC50 [1, 7]: 7.1 µM

Molecule: CC(C)(Sc1cc(C(C)(C)C)c(O)c(C(C)(C)C)c1)Sc1cc(C(C)(C)C)c(OC(=O)CCC(=O)O)c(C(C)(C)C)c1 [Succinobucol]
- IC50 [1, 7]: 8.1 µM

Molecule: C[C@@H]1O[C@@H](O[C@@H]2[C@@H](O)[C@H](OCCc3ccc(O)c(O)c3)O[C@H](CO)[C@H]2OC(=O)/C=C/c2ccc(O)c(O)c2)[C@H](O)[C@H](O)[C@H]1O [verbascoside]
- N protein-RNA1 disruption [6]: low

Molecule: Oc1c(Cl)cc(Cl)cc1Sc1cc(Cl)cc(Cl)c1O [Bithionol]
- IC50 [1, 7]: 23 µM

Molecule: CCCCCCCCCCCCCCCc1cccc(O)c1C(=O)O [Anacardic Acid]
- IC50 [1, 8]: 7.7 µM

Molecule: CC(C)=CCOc1ccc(/C=C/C(=O)c2ccc(OCC=C(C)C)cc2OCC(=O)O)cc1 [Sofalcone]
- IC50 [1, 7]: 18.5 µM

Molecule: CC(C)CCCCCCCCC[C@@H]1CC(=O)N[C@@H](CCC(=O)O)C(=O)N[C@@H](CC(C)C)C(=O)N[C@H](CC(C)C)C(=O)N[C@@H](C(C)C)C(=O)N[C@@H](CC(=O)O)C(=O)N[C@H](CC(C)C)C(=O)N[C@@H](CC(C)C)C(=O)O1 [Surfactin] (EL[dL]VD[dL]L; linker N-C via X2)
- IC50 [1, 7]: 11.1 µM

Molecule: O=C(/C=C/c1ccc(O)c(O)c1)O[C@@H]1CC(O)(C(=O)O)C[C@@H](OC(=O)/C=C/c2ccc(O)c(O)c2)C1O (some centres unmarked) [Isochlorogenic acid A, 3,5-dicaffeoylquinic acid]
- IC50 [1, 8]: 5.5 µM
- loss in IC50 values in comparison to CA [1]: ~ 10 fold

Molecule: COc1cc(C(=O)NS(=O)(=O)c2ccccc2C)ccc1Cc1cn(C)c2ccc(NC(=O)OC3CCCC3)cc12 [Zafirlukast]
- IC50 [1, 7]: 10.4 µM

Molecule: CN(Cc1ccc(C(C)(C)C)cc1)Cc1cccc2ccccc12 [Butenafine]
- IC50 [1, 7]: 15.7 µM

Molecule: Cc1cc2c(C(C)C)c(O)c(O)c(C=O)c2c(O)c1-c1c(C)cc2c(C(C)C)c(O)c(O)c(C=O)c2c1O [(R)-(-)-Gossypol acetic acid]
- IC50 [1, 8]: 6.4 µM

Molecule: O=C(/C=C/c1ccc(O)c(O)c1)O[C@H](Cc1ccc(O)c(O)c1)C(=O)O [rosmarinic acid]
- N protein-RNA1 disruption [6]: low

Molecule: Cc1ccnc(NS(=O)(=O)c2ccc(N)cc2)n1 [Sulfamerazine]
- IC50 [1, 7]: 6.5 µM

Molecule: COc1ccc2cc(-c3cc(-c4cc(Cl)cc(Cl)c4)nn3[C@@H](C)c3ccc(C(=O)NCCC(=O)O)cc3)ccc2c1 [MK 0893]
- IC50 [1, 7]: 14.4 µM

Molecule: O=C(Nc1cccc2c(=O)cc(-c3nnn[nH]3)oc12)c1ccc(OCCCCc2ccccc2)cc1 [Pranlukast (hemihydrate), Pranlukast]
- IC50 [1, 7]: 7.8 µM

Molecule: COc1cc(C(=O)O)ccc1NC(=O)[C@@H]1N[C@@H](CC(C)(C)C)[C@](C#N)(c2ccc(Cl)cc2F)[C@H]1c1cccc(Cl)c1F [Idasanutlin]
- IC50 [1, 7]: 6.5 µM

Molecule: CCCCCCCCCCCC1=C(O)C(=O)C=C(O)C1=O [Embelin]
- IC50 [1, 7]: 5 µM

Molecule: Oc1c(Cl)cc(Cl)c(Cl)c1Cc1c(O)c(Cl)cc(Cl)c1Cl [Hexachlorophene]
- IC50 [1, 7]: 13 µM
